Key:
[1] = for speed of sound: 100 kPa, Frequency=3 MHz, Sing-around technique in a fixed-path interferometer; for speed of sound / viscosity / mass density: Liquid; for viscosity / mass density: 102 kPa; for viscosity: Concentric cylinders viscometry; for mass density: Vibrating tube method; for surface tension liquid-gas: Pendant drop shape
[2] = xn = mol fraction of the nth substance listed; conditions: Liquid; for speed of sound: 100 kPa, Frequency=3 MHz, Sing-around technique in a fixed-path interferometer; for viscosity / mass density: 102 kPa; for viscosity: Concentric cylinders viscometry; for mass density: Vibrating tube method

CCCCc1ccccc1 [butylbenzene]
[1]
Conditions	mass density [kg/m3]	speed of sound [m/s]	surface tension liquid-gas [mN/m]	viscosity [mPa·s]
293.15 K	860.51	1353.7	–	1.05
294.2 K	–	–	29.1	–
303.15 K	852.49	1314.9	–	0.91
313.15 K	844.43	1276.6	–	0.801
323.15 K	836.34	1238.7	–	0.713
333.15 K	828.21	1201.4	–	0.636
343.15 K	819.9	–	–	0.571
353.15 K	811.7	–	–	0.516
363.15 K	803.4	–	–	0.469
373.15 K	795	–	–	0.43

CCCCc1ccccc1 [butylbenzene] + CCCCCCCCCCCCCCCCC
[2], x1 = 1
Conditions	mass density [kg/m3]	speed of sound [m/s]	viscosity [mPa·s]
303.15 K	852.49	1314.9	0.91
313.15 K	844.43	1276.6	0.801
323.15 K	836.34	1238.7	0.713
333.15 K	828.21	1201.4	0.636
343.15 K	819.9	–	0.571
353.15 K	811.7	–	0.516
363.15 K	803.4	–	0.469
373.15 K	795	–	0.43

CCCCCCCCCC [decane]
[1]
Conditions	mass density [kg/m3]	speed of sound [m/s]	surface tension liquid-gas [mN/m]	viscosity [mPa·s]
293.15 K	729.88	1253.8	–	0.922
294.6 K	–	–	23.8	–
303.15 K	722.31	1214.5	–	0.794
313.15 K	714.69	1175.7	–	0.693
323.15 K	707.02	1137.3	–	0.615
333.15 K	699.29	1099.3	–	0.545
343.15 K	691.5	–	–	0.486
353.15 K	683.6	–	–	0.436
363.15 K	675.6	–	–	0.396
373.15 K	667.5	–	–	0.362

CCCCCCCCCC [decane] + CCCCc1ccccc1
[2], x2 = 0
Conditions	mass density [kg/m3]	speed of sound [m/s]	viscosity [mPa·s]
293.15 K	729.88	1253.8	0.922
303.15 K	722.31	1214.5	0.794
313.15 K	714.69	1175.7	0.693
323.15 K	707.02	1137.3	0.615
333.15 K	699.29	1099.3	0.545
343.15 K	691.5	–	0.486
353.15 K	683.6	–	0.436
363.15 K	675.6	–	0.396
373.15 K	667.5	–	0.362

CCCCCCCCCCCC [dodecane]
[1]
Conditions	mass density [kg/m3]	speed of sound [m/s]	surface tension liquid-gas [mN/m]	viscosity [mPa·s]
293.15 K	748.79	1297.9	–	1.47
294.1 K	–	–	25.1	–
303.15 K	741.54	1259.6	–	1.24
313.15 K	734.25	1221.9	–	1.06
323.15 K	726.94	1184.7	–	0.916
333.15 K	719.59	1148	–	0.801
343.15 K	712.2	–	–	0.706
353.15 K	704.7	–	–	0.627
363.15 K	697.2	–	–	0.562
373.15 K	689.6	–	–	0.506

CCCCCCCCCCCC [dodecane] + CCCCc1ccccc1
[2], x2 = 0
Conditions	mass density [kg/m3]	speed of sound [m/s]	viscosity [mPa·s]
293.15 K	748.79	1297.9	1.47
303.15 K	741.54	1259.6	1.24
313.15 K	734.25	1221.9	1.06
323.15 K	726.94	1184.7	0.916
333.15 K	719.59	1148	0.801
343.15 K	712.2	–	0.706
353.15 K	704.7	–	0.627
363.15 K	697.2	–	0.562
373.15 K	689.6	–	0.506

CCCCCCCCCCCCCCCCC [heptadecane]
[1]
Conditions	mass density [kg/m3]	speed of sound [m/s]	viscosity [mPa·s]
303.15 K	771.02	1330.9	3.25
313.15 K	764.16	1294.5	2.61
323.15 K	757.3	1258.8	2.14
333.15 K	750.45	1223.8	1.79
343.15 K	743.7	–	1.52
353.15 K	736.8	–	1.3
363.15 K	729.8	–	1.14
373.15 K	723	–	1

CCCCCCCCCCCCCCCC [hexadecane]
[1]
Conditions	mass density [kg/m3]	speed of sound [m/s]	surface tension liquid-gas [mN/m]	viscosity [mPa·s]
293.15 K	773.52	1357.3	–	3.45
294.8 K	–	–	27.4	–
303.15 K	766.58	1320	–	2.74
313.15 K	759.66	1283.4	–	2.22
323.15 K	752.74	1247.5	–	1.84
333.15 K	745.82	1212.1	–	1.55
343.15 K	738.8	–	–	1.32
353.15 K	731.9	–	–	1.14
363.15 K	724.9	–	–	1
373.15 K	717.8	–	–	0.887

CCCCCCCCCCCCCCCC [hexadecane] + CCCCc1ccccc1
[2], x2 = 0
Conditions	mass density [kg/m3]	speed of sound [m/s]	viscosity [mPa·s]
293.15 K	773.52	1357.3	3.45
303.15 K	766.58	1320	2.74
313.15 K	759.66	1283.4	2.22
323.15 K	752.74	1247.5	1.84
333.15 K	745.82	1212.1	1.55
343.15 K	738.8	–	1.32
353.15 K	731.9	–	1.14
363.15 K	724.9	–	1
373.15 K	717.8	–	0.887

CCCCCCCCCCCCCC [tetradecane]
[1]
Conditions	mass density [kg/m3]	speed of sound [m/s]	surface tension liquid-gas [mN/m]	viscosity [mPa·s]
293.15 K	762.71	1331.2	–	2.3
294.6 K	–	–	26.2	–
303.15 K	755.65	1293.6	–	1.88
313.15 K	748.58	1256.4	–	1.56
323.15 K	741.5	1220.1	–	1.32
333.15 K	734.4	1184.1	–	1.13
343.15 K	727.5	–	–	0.98
353.15 K	720.3	–	–	0.858
363.15 K	713.1	–	–	0.76
373.15 K	705.8	–	–	0.679

CCCCCCCCCCCCCC [tetradecane] + CCCCc1ccccc1
[2], x2 = 0
Conditions	mass density [kg/m3]	speed of sound [m/s]	viscosity [mPa·s]
293.15 K	762.71	1331.2	2.3
303.15 K	755.65	1293.6	1.88
313.15 K	748.58	1256.4	1.56
323.15 K	741.5	1220.1	1.32
333.15 K	734.4	1184.1	1.13
343.15 K	727.5	–	0.98
353.15 K	720.3	–	0.858
363.15 K	713.1	–	0.76
373.15 K	705.8	–	0.679
